38 compounds from patent US4382889A, “Epoxysuccinic acid derivatives” (Taisho Pharmaceutical Co., Ltd., priority 1979, dated 1983) can be followed below.

SMILES strings stand for the structures.

This assay deals with T1, papain (Carica papaya, UniProt P00784).
T1 construct: purchased Sigma Chem. Co
T1 sequence (P00784 134-345): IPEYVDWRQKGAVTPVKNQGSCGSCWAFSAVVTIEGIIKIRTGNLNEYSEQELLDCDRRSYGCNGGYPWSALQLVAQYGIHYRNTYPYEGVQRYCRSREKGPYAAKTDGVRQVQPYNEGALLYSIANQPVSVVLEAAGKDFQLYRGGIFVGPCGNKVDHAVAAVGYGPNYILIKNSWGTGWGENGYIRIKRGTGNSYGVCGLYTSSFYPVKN
Kind of assay: Papain inhibitory activity (method of K. Hanada et al). Type of assay: biochemical. The conditions noted are these: papain 80 ug/ml, Sigma, 2 x cry. How it is done:
Papain inhibitory activity of the compounds of the present invention was assayed by the method of K. Hanada et al, [Argric. Biol. Chem., 42, No. 3, 523(1978)] using papain (80 ug/ml, Sigma Chem. Co., 2 x cry.).

As for `CC(C)C[C@H](NC(=O)C1OC1C(=O)OCc1ccccc1)C(=O)N[C@@H](CC(C)C)C(=O)OCc1ccccc1` (mixture of isomers) [Compound 17, N-(DL-3-trans-benzyloxycarbonyloxirane-2-carbonyl)-L-leucyl-L-leucine benzyl ester], the “Papain ID50 (amount of inhibitor for 50% inhibition)” value came out at 0.255 µg.
The value for `CCOC(=O)C1OC1C(=O)N[C@@H](CC(C)C)C(=O)N1CCCCC1` (mixture of isomers) [Compound 4, N-[N'-(DL-3-trans-ethoxycarbonyloxirane-2-carbonyl)-L-leucyl]piperidine] was 0.417 µg.
The figure for `CC[C@H](C)[C@H](NC(=O)[C@H](CC(C)C)NC(=O)C1OC1C(=O)OCc1ccccc1)C(=O)OC` (mixture of isomers) [Compound 21, N-(DL-3 trans-benzyloxycarbonyloxirane-2-carbonyl)-L-leucyl-L-isoleucine methyl ester] is 0.169 µg.
With `CCOC(=O)C1OC1C(=O)N[C@@H](CC(C)C)C(=O)NC1CCCC1` (some centres unmarked) [Compound 6], the “Papain ID50 (amount of inhibitor for 50% inhibition)” value worked out at 0.410 µg.
The value for `CC(C)C[C@H](NC(=O)C1OC1C(=O)OCc1ccccc1)C(=O)N(C)c1ccccc1` (mixture of isomers) [Compound 10, N-[N'-(DL-3-trans-benzyloxycarbonyloxirane-2-carbonyl)-L-leucyl]-N-methylaniline] was 0.510 µg; that for `CC(C)C[C@H](NC(=O)C1OC1C(=O)OCc1ccccc1)C(=O)N(C)C` (mixture of isomers) [Compound 11, N-[N'-(DL-3-trans-benzyloxycarbonyloxirane-2-carbonyl)-L-leucyl]dimethylamine] was 0.184 µg; that for `CC(C)C[C@H](NC(=O)C1OC1C(=O)OC1CCCC1)C(=O)NC1CCCC1` (mixture of isomers) [Compound 14, N-[N'-(DL-3-trans-cycloentyloxycarbonyl)-L-leucyl]cyclopentylamine] was 0.187 µg.
The value for `CC(C)C[C@H](NC(=O)C1OC1C(=O)OC1CCCCC1)C(=O)NC1CCCCC1` (mixture of isomers) [Compound 13, N-[N'-(DL-3-trans-cyclohexyloxycarbonyloxirane-2-carbonyl)-L-leucyl]cyclohexylamine] was 0.255 µg; that for `CCCNC(=O)[C@H](CC(C)C)NC(=O)C1OC1C(=O)OCC` (some centres unmarked) [Compound 9] was 0.313 µg; that for `COC(=O)[C@@H](CC(C)C)NC(=O)[C@@H](CC(C)C)NC(=O)C1OC1C(=O)OCc1ccccc1` (some centres unmarked) [Compound 33] was 0.255 µg.
For `CCOC(=O)C1OC1C(=O)N[C@@H](CC(C)C)C(=O)N1CCCC1` (mixture of isomers) [Compound 3, N-[N'-(DL-3-trans-ethoxycarbonyloxirane-2-carbonyl)-L-leucyl]pyrrolidine], the “Papain ID50 (amount of inhibitor for 50% inhibition)” value was determined as 1.10 µg.
The figure for `COC(=O)[C@@H](CC(C)C)NC(=O)[C@H](CC(C)C)NC(=O)C1OC1C(=O)OCc1ccccc1` (mixture of isomers) [Compound 23, N-(DL-3-trans-benzyloxycarbonyloxirane-2-carbonyl)-L-leucyl-D-leucine methyl ester] is 0.221 µg.
The figure for `CC(C)C[C@H](NC(=O)C1OC1C(=O)O)C(=O)N[C@@H](CCCN)C(=O)O` (mixture of isomers) [Compound 44, N-(DL-3-trans-carboxyoxirane-2-carbonyl)-L-leucyl-L-ornithine] is 0.250 µg; for `CCC(C)[C@H](NC(=O)C1OC1C(=O)OCc1ccccc1)C(=O)N[C@@H](Cc1c[nH]c2ccccc12)C(=O)OC` (some centres unmarked) [Compound 38] it is 0.305 µg.
For `COC(=O)[C@@H](NC(=O)[C@H](CC(C)C)NC(=O)C1OC1C(=O)OCc1ccccc1)[C@@H](C)O` (some centres unmarked) [Compound 29], the “Papain ID50 (amount of inhibitor for 50% inhibition)” value was 0.35 µg.
The figure for `COC(=O)[C@H](CC(C)C)NC(=O)[C@H](CC(C)C)NC(=O)C1OC1C(=O)OCc1ccccc1` (some centres unmarked) [Compound 32] is 0.227 µg; for `COC(=O)[C@H](CCCN=C(N)N[N+](=O)[O-])NC(=O)[C@H](CC(C)C)NC(=O)C1OC1C(=O)OCc1ccccc1` (mixture of isomers) [Compound 26, N-(DL-3-trans-benzyloxycarbonyloxirane-2-carbonyl)-L-leucyl-N^G -nitro-L-arginine methyl ester] it is 0.139 µg; for `CCOC(=O)[C@H](Cc1ccccc1)NC(=O)[C@H](CC(C)C)NC(=O)C1OC1C(=O)OCc1ccccc1` (some centres unmarked) [Compound 31] it is 0.375 µg.
The figure for `COC(=O)[C@@H](CC(C)C)NC(=O)[C@H](CC(C)C)NC(=O)[C@H]1O[C@@H]1C(=O)OCc1ccccc1` [Compound 25, N-(L-3-trans-benzyloxycarbonyloxirane-2-carbonyl)-L-leucyl-D-leucine methyl ester] is 0.223 µg; for `COC(=O)CC[C@H](NC(=O)[C@H](CC(C)C)NC(=O)C1OC1C(=O)OCc1ccccc1)C(=O)OC` (mixture of isomers) [Compound 20, N-(DL-3-trans-benzyloxycarbonyloxirane-2-carbonyl)-L-leucyl-L-gluamic acid dimethyl ester] it is 0.255 µg; for `CCC(C)[C@H](NC(=O)C1OC1C(=O)OCc1ccccc1)C(=O)N[C@H](C(=O)OC)C(C)C` (some centres unmarked) [Compound 41] it is 0.272 µg.
As to `COC(=O)CC[C@H](NC(=O)[C@H](CC(C)C)NC(=O)C1OC1C(=O)O)C(=O)OC` (mixture of isomers) [Compound 47, N-(DL-3-transcarboxyoxirane-2-carbonyl)-L-leucyl-L-glutamic acid dimethyl ester], the “Papain ID50 (amount of inhibitor for 50% inhibition)” value worked out at 0.260 µg.
`COC(=O)[C@H](CCSC)NC(=O)[C@H](CC(C)C)NC(=O)C1OC1C(=O)OCc1ccccc1` (some centres unmarked) [Compound 27]: the “Papain ID50 (amount of inhibitor for 50% inhibition)” value was found to be 0.216 µg.
The figure for `CCOC(=O)C1OC1C(=O)N[C@@H](CC(C)C)C(=O)NCCc1ccccc1` (some centres unmarked) [Compound 8] is 0.446 µg; for `CCC(C)[C@H](NC(=O)C1OC1C(=O)OCc1ccccc1)C(=O)N[C@@H](Cc1ccc(O)cc1)C(=O)OC` (some centres unmarked) [Compound 39] it is 0.408 µg; for `COC(=O)C1OC1C(=O)N[C@@H](CC(C)C)C(=O)N[C@@H](CCSC)C(=O)OC` (some centres unmarked) [Compound 28] it is 0.156 µg.
With `COC(=O)[C@@H](CC(C)C)NC(=O)[C@H](CC(C)C)NC(=O)[C@@H]1O[C@H]1C(=O)OCc1ccccc1` [Compound 24, N-(D-3-trans-benzyloxycarbonyloxirane-2-carbonyl)-L-leucyl-D-leucine methyl ester], the “Papain ID50 (amount of inhibitor for 50% inhibition)” value was 0.219 µg.
The figure for `CCOC(=O)C1OC1C(=O)N[C@@H](CC(C)C)C(=O)NC1CC1` (some centres unmarked) [Compound 5] is 0.284 µg.
The figure for `COC(=O)[C@H](CC(C)C)NC(=O)[C@@H](CC(C)C)NC(=O)C1OC1C(=O)OCc1ccccc1` (mixture of isomers) [Compound 22, N-(DL-3-trans-benzyloxycarbonyloxirane-2-carbonyl)-D-leucyl-L-leucine methyl ester] is 8.28 µg; for `COC(=O)[C@@H]1CCCN1C(=O)[C@H](CC(C)C)NC(=O)C1OC1C(=O)O` (mixture of isomers) [Compound 46, N-(DL-3-trans-carboxyoxirane-2-carbonyl)-L-leucyl-L-proline methyl ester] it is 0.105 µg.
The value for `CC(C)C[C@H](NC(=O)[C@H](CC(C)C)NC(=O)C1OC1C(=O)OCc1ccccc1)C(N)=O` (some centres unmarked) [Compound 34] was 0.298 µg; that for `CCOC(=O)CNC(=O)[C@@H](NC(=O)C1OC1C(=O)OCc1ccccc1)C(C)CC` (some centres unmarked) [Compound 40] was 0.481 µg.
With `COC(=O)[C@H](Cc1ccccc1)NC(=O)[C@H](Cc1ccccc1)NC(=O)C1OC1C(=O)OCc1ccccc1` (some centres unmarked) [Compound 37], the “Papain ID50 (amount of inhibitor for 50% inhibition)” value turned out to be 2.50 µg.
The figure for `CCOC(=O)C1OC1C(=O)N[C@@H](CC(C)C)C(=O)NC1CCCCC1` (mixture of isomers) [Compound 1, N-[N'-(DL-3-trans-ethoxycarbonyloxirane-2-carbonyl)-L-leucyl]cyclohexylamine] is 0.439 µg.
In the case of `CCOC(=O)C1OC1C(=O)N[C@@H](Cc1ccccc1)C(=O)N[C@@H](Cc1ccccc1)C(=O)OC` (mixture of isomers) [Compound 18, N-(DL-3-trans-ethoxycarbonyloxirane-2-carbonyl-L-phenylalanyl-L-phenylalaninemethyl ester], the “Papain ID50 (amount of inhibitor for 50% inhibition)” value was found to be 29.07 µg.
The figure for `CCOC(=O)C1OC1C(=O)N[C@@H](CC(C)C)C(=O)NCCC(C)C` (some centres unmarked) [Compound 7] is 0.410 µg; for `CCCCCCCCCCNC(=O)[C@H](CC(C)C)NC(=O)C1OC1C(=O)OCC` (mixture of isomers) [Compound 2, N-[N'-(DL-3-trans-ethoxycarbonyloxirane-2-carbonyl)-L-leucyl]-n-decylamine] it is 0.227 µg; for `CCOC(=O)C1OC1C(=O)N[C@@H](CC(C)C)C(=O)N[C@@H](CC(C)C)C(=O)N(C)C` (some centres unmarked) [Compound 35] it is 0.212 µg.
